Measurements taken from US9205132B2, “Method of lowering mortality” (CORTHERA, INC., priority 2008, dated 2015).
Entries after “also recorded” stand apart in the source; their conditions may differ.

Tests used:
[1] = system: patients with acute heart failure (AHF); assay: Patient-reported dyspnea (7-point Likert Scale, 100-mm VAS), Pre-RELAX-AHF trial; assay type: in vivo, human; conditions: for average improvement in dyspnea VAS over the 5 days: corresponds to AUC to Day 5; for average change in dyspnea VAS over the 14 days: corresponds to AUC to Day 14; for Dyspnea AUC Change from baseline to Day 5 (VAS; mm*hr) / Dyspnea AUC Change from baseline to Day 14 (VAS; mm*hr): mean ± SD
Protocol: Study Procedures. The study was approved by the relevant ethics committees, institutional review hoards and regulatory authorities, and conducted under the International Conference on Harmonization Good Clinical Practice guidelines. All patients provided informed written consent prior to participation. […] The placebo used for the study was the same solution as the diluent used to prepare the 100 μg/kg/day dose. The randomization ratio was 3:2:2:2:2, respectively, Relaxin (Corthera, San Mateo, Calif.) was manufactured using recombinant techniques and was identical to the naturally-occurring peptide hormone. By protocol, the study drug infusion was to be terminated if the patient's SBP was reduced to <100 mmHg or by >40 mmHg compared to baseline in two successive measurements, 15 minutes apart. Investigators were not prohibited from utilizing any standard medication, thought necessary to treat patients enrolled in the study, including additional vasodilators, following a 4-hour washout period during which time IV vasodilators, IV pure inotropes and meals were withheld, hemodynamic, renal, and clinical responses to 48 hours of study drug infusion were assessed.
Study Endpoints. […] 4.) Length of initial hospital stay.
Dyspnea Responses. Results are presented via the Visual Analog Score (VAS) and the Likert Score. The VAS score measures a characteristic of attitude that ranges across a continuum of values, for example, the amount of discomfort an AHF patient feels ranges across a continuum from none to an extreme amount of discomfort and/or pain including dyspnea, hypertension, high blood pressure, arrhythmia and reduced renal blood flow. From the patient's perspective this spectrum appears continuous, which the VAS captures. Operationally a VAS is usually a horizontal line, 100 mm in length, anchored by word descriptors at each end (e.g., no discomfort on one end and severe discomfort on the other end). The patients marked on the line the point that they fell represented their perception of their current state. The VAS score is determined by measuring in millimeters from the left hand end of the line to the point that the patient marks (Wewers et al., Research in Nursing and Health 13:227-236, 1990).
The Likert Score is a unidimensional sealing method known in the art, wherein the set of scale items are rated on a numerical (herein 7-point) Disagree-Agree response scale. Each patient was asked to rate each item on the response scale. The final score for the respondents on the scale is the sum of their ratings for all of the items.

[2] = system: patients with systemic sclerosis; assay: Clinical trial of relaxin in patients with systemic sclerosis, continuous SQ infusion for six months; assay type: in vivo, human
Text: Overview. Clinical trials with relaxin have also been conducted on systemic sclerosis patients, 257 human subjects who suffer from systemic sclerosis, a serious fibrotic disease, have been treated with relaxin by continuous and subcutaneous (SQ) infusion for six months. […] These findings support the hypothesis that relaxin administration was associated with balanced systemic and renal vasodilation.

[3] = 30 mcg/kg/d IV 48 h, listed as relaxin

Relaxin
percent moderate or marked improvement in dyspnea (Likert), sustained over 14 days ([1]; 30 μg/kg/day, AHF patients with SBP greater than the median, FIG. 7): about 90%
improvement in dyspnea within 6, 12 and 24 hours of administration ([1]; 30 μg/kg/day, FIG. 12): statistically significant improvement in dyspnea
% moderately/markedly better dyspnea at 6, 12 and 24 hrs (Likert) ([1]; 10 mcg/kg/d IV 48 h): 27.5%
average improvement in dyspnea VAS over the 5 days ([1]; 10 mcg/kg/d IV 48 h): 21 mm
average change in dyspnea VAS over the 14 days ([1]; 10 mcg/kg/d IV 48 h): 10 mm
Dyspnea AUC Change from baseline to Day 5 (VAS; mm*hr) ([1]; 10 mcg/kg/d IV 48 h): 2500 ± 2908 mm*hr
Dyspnea AUC Change from baseline to Day 14 (VAS; mm*hr) ([1]; 10 mcg/kg/d IV 48 h): 6366 ± 10078 mm*hr
% moderately/markedly better dyspnea at 6, 12 and 24 hrs (Likert) ([1]; 30 mcg/kg/d IV 48 h): 40.5%
average improvement in dyspnea VAS over the 5 days ([1]; 30 mcg/kg/d IV 48 h): 22 mm
average change in dyspnea VAS over the 14 days ([1]; 30 mcg/kg/d IV 48 h): 25 mm
% moderately/markedly better dyspnea at 6, 12 and 24 hrs (Likert) [1, 3]: 40.5%
Dyspnea AUC Change from baseline to Day 5 (VAS; mm*hr) ([1]; 30 mcg/kg/d IV 48 h): 2567 ± 2898 mm*hr
Dyspnea AUC Change from baseline to Day 14 (VAS; mm*hr) ([1]; 30 mcg/kg/d IV 48 h): 8214 ± 8712 mm*hr
Dyspnea AUC Change from baseline to Day 5 (VAS; mm*hr) [1, 3]: 2567±2898 mm*hr
Dyspnea AUC Change from baseline to Day 14 (VAS; mm*hr) [1, 3]: 8214±8712 mm*hr
% moderately/markedly better dyspnea at 6, 12 and 24 hrs (Likert) ([1]; 100 mcg/kg/d IV 48 h): 13.5%
average improvement in dyspnea VAS over the 5 days ([1]; 100 mcg/kg/d IV 48 h): 21 mm
average change in dyspnea VAS over the 14 days ([1]; 100 mcg/kg/d IV 48 h): 25 mm
Dyspnea AUC Change from baseline to Day 5 (VAS; mm*hr) ([1]; 100 mcg/kg/d IV 48 h): 2486 ± 2865 mm*hr
Dyspnea AUC Change from baseline to Day 14 (VAS; mm*hr) ([1]; 100 mcg/kg/d IV 48 h): 8227 ± 9707 mm*hr
% moderately/markedly better dyspnea at 6, 12 and 24 hrs (Likert) ([1]; 250 mcg/kg/d IV 48 h): 22.4%
average improvement in dyspnea VAS over the 5 days ([1]; 250 mcg/kg/d IV 48 h): 18 mm
average change in dyspnea VAS over the 14 days ([1]; 250 mcg/kg/d IV 48 h): 21 mm
Dyspnea AUC Change from baseline to Day 5 (VAS; mm*hr) ([1]; 250 mcg/kg/d IV 48 h): 2155 ± 2338 mm*hr
Dyspnea AUC Change from baseline to Day 14 (VAS; mm*hr) ([1]; 250 mcg/kg/d IV 48 h): 6856 ± 7923 mm*hr
time at which a beneficial effect on dyspnea was first seen ([1]; AHF patients with CrCl less than the median, FIG. 8): 6 h
time at which a beneficial effect on dyspnea was first seen ([1]; AHF patients with SBP greater than the median, FIG. 7): 6 h
onset of improvement in dyspnea ([1]; all relaxin-treated AHF patients): ≤ 6 h
serum concentration at which relaxin was shown to be fully effective ([1]; see FIG. 6): 3 to 6 ng/mL
blood pressure [2]: stable decreases in blood pressure
hypotensive events [2]: did not experience any serious hypotensive events; also recorded: None of the patients developed hypotension during dosing
predicted creatinine clearance (renal function) [2]: statistically significant increase in predicted creatinine clearance; also recorded: stable improvement in renal function
